Data set [1] can be described thus: Half life in CD1 mouse at 3 mg/kg, iv or 10 mg/kg, po administered via gavage by LC-MS/MS analysis. The conditions noted are these: in vivo. In kind it is ADME, organism-based.
A further data set concerns the target T1, Cytochrome P450 1A2 (Homo sapiens, UniProt P05177).
T1 sequence (P05177 whole entry): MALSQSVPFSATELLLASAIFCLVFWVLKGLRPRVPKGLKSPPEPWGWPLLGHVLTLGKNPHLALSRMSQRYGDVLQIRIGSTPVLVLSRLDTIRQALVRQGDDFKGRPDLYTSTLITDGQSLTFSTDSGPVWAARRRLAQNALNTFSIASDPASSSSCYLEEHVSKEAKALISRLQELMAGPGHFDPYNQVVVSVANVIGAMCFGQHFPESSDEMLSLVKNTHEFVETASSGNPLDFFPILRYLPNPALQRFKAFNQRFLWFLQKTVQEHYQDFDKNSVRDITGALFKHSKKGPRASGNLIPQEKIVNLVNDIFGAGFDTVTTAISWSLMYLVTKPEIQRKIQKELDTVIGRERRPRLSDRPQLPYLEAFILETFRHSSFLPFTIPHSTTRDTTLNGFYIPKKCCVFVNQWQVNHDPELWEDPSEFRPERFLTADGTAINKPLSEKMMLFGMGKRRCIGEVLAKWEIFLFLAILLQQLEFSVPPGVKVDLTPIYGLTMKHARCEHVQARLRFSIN
Nature of the data set: Inhibition of CYP1A2 in human liver microsomes using phenacetin as substrate measured after 10 mins by LC-MS/MS analysis. It counts as ADME.

A further data set has as its system CHO-K1. Nature of the data set: Genotoxicity in CHOK1 cells measured after 3 hrs in presence of Sprague-Dawley rat liver S9 fraction by Hoechst/calcein-AM staining based micronucleus test. In kind it is toxicity, cell-based, Cricetulus griseus. The conditions noted are these: chinese hamster, s9, 3 h.
The target in data set [2] is Casein kinase I epsilon (CKepsilon) (Homo sapiens, UniProt P49674). The data set can be described thus: Inhibition of recombinant human full-length His-tagged CKepsilon expressed in baculovirus expression system at 1 uM by Lanthascreen assay relative to control. (In TR-FRET formats the signal depends on donor and acceptor labels being close together.)
The nature of data set [3]: Oral bioavailability in CD1 mouse at 10 mg/kg administered via gavage by LC-MS/MS analysis. In kind it is ADME, organism-based. The conditions noted are these: in vivo.
A short description of data set [4]: Clearance in human hepatocytes assessed per million cells at 1 uM by LC-MS/MS analysis. It counts as ADME, cell-based, Hepatocyte.
Data set [5] can be described thus: Cmax in CD1 mouse at 3 mg/kg, iv or 10 mg/kg, po administered via gavage by LC-MS/MS analysis. Particulars: in vivo. In kind it is ADME, organism-based.
Data set [6] in a line: Apparent permeability across apical to basolateral side in MDCK2-MDR1 cells at 2 uM measured after 150 mins by LC-MS/MS analysis. In kind it is ADME, cell-based, Canis lupus familiaris. The conditions noted are these: dog, mdck-mdr1, […].
Data set [7] in a line: Genotoxicity in Salmonella typhimurium TA100 at 0.004 to 5 mg/ml measured after 90 mins in presence of rat S9 fraction by mini-Ames test. It counts as toxicity, subcellular. Particulars: salmonella enterica subsp. enterica serovar typhimurium.
The nature of data set [8]: Inhibition of Toxoplasma gondii full-length wild-type C-terminal His-tagged CDPK1 expressed in Escherichia coli BL21(DE3)V2RpAcYc-LIC+LamP using syntide-2 peptide as substrate incubated for 20 to 40 mins by ELISA. In general terms: An ELISA detects its analyte on a solid surface through an enzyme-linked reagent.
Data set [9] is described as follows: Inhibition of Toxoplasma gondii full-length C-terminal His-tagged CDPK1 G128M mutant expressed in Escherichia coli BL21(DE3)V2RpAcYc-LIC+LamP using syntide-2 peptide as substrate incubated for 20 to 40 mins by ELISA.
Data set [10] can be described thus: Half life in human liver microsomes at 10 uM preincubated for 10 mins followed by NADPH addition by LC-MS/MS analysis. It counts as ADME, Microsome. The conditions noted are these: liver microsomes. Background: Microsomes from liver hold many membrane-bound enzymes, among them those of drug oxidation.
Data set [11] can be described thus: Genotoxicity in Salmonella typhimurium TA100 at 0.004 to 5 mg/ml measured after 90 mins in absence of rat S9 fraction by mini-Ames test. The conditions noted are these: salmonella enterica subsp. enterica serovar typhimurium. In kind it is toxicity.
The nature of data set [12]: Cytotoxicity against human SH-SY5Y cells assessed as cell growth at 20 uM measured after 72 hrs by cellTiter 96 AQueous non-radioactive cell proliferation assay relative to control. In kind it is cell-based. Particulars: read-out: Activity.
A further data set deals with LCK (Homo sapiens, UniProt P06239). The data set can be described thus: Inhibition of wild-type human partial length LCK (R207 to P509 residues) expressed in bacterial expression system at 10 uM by Kinomescan method relative to control.
The target in data set [13] is Proto-oncogene tyrosine-protein kinase Src (Homo sapiens, UniProt P12931). Nature of the data set: Inhibition of human Src expressed in Escherichia coli BL21 using Abltide peptide as substrate incubated for 20 to 40 mins by ELISA.

pEC50, pIC50: −log10 of the molar value. Some results are limits rather than exact numbers.

Proto-oncogene tyrosine-protein kinase Src, sequence (P12931 2-536 limits assumed): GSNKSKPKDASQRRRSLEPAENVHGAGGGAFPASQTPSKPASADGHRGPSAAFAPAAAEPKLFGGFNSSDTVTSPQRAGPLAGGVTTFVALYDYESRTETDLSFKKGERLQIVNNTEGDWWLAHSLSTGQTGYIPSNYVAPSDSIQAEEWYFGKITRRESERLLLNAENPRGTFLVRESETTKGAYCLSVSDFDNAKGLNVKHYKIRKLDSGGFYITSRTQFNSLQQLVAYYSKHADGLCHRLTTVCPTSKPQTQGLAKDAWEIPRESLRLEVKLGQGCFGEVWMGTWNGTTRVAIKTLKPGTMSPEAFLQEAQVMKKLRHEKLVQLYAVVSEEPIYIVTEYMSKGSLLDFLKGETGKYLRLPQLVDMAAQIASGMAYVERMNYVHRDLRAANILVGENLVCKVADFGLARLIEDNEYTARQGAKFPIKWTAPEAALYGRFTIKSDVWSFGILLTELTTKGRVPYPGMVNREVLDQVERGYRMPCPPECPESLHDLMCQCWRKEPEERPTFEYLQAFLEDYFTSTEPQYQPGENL
LCK, sequence (P06239 whole entry, the tested form may be a part): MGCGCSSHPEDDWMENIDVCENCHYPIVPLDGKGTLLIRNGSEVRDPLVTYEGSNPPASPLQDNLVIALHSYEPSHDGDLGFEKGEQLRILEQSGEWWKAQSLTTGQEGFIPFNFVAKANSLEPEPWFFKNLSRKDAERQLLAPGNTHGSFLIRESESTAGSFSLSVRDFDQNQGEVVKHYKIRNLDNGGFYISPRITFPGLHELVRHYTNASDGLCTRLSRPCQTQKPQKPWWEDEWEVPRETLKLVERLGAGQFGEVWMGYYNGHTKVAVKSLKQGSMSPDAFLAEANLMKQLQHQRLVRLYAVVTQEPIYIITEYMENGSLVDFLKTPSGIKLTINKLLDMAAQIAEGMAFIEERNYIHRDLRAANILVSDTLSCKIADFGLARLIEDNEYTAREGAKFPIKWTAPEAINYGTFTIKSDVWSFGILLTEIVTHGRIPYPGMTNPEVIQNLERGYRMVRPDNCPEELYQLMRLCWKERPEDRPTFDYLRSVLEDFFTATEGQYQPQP
Casein kinase I epsilon (CKepsilon), sequence (P49674 whole entry): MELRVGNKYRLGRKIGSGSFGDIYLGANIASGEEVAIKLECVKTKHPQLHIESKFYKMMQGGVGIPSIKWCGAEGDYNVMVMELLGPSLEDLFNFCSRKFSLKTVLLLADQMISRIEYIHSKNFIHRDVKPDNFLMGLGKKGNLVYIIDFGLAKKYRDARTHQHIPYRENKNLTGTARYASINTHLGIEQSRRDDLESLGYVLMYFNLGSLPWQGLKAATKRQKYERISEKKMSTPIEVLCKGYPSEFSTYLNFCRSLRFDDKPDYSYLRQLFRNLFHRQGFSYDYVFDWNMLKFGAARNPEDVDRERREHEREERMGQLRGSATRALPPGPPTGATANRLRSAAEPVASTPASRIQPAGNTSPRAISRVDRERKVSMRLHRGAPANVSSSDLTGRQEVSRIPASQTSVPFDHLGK

`N#Cc1ccnc(Oc2nn([C@H]3C[C@H](F)C3)c3ncnc(N)c23)c1` came in with a t1/2 in [1] of 1.43 h. The compound also had a negative-log EC50 (pEC50) on Cytochrome P450 1A2 of 4.68. Besides, the Activity was over 100 µM in the data set on CHO-K1, “Non-Toxic” in data set [7] and “Non-Toxic” in [11]. The inhibition at 1 µM in [2] is over 50%. The compound further showed a bioavailability in [3] of 43.1%. This compound yielded a CLH in data set [4] of 10 µL/min/1e6 cells. This compound also registered a Cmax in [5] of 1503 ng/mL. In addition, the apparent permeability (Papp) in data set [6] came to 26.87 ×10⁻⁶ cm/s. Also, the pIC50 is 7.82 to 7.83 in data set [8], under 4.70 in [9] and under 4.70 in data set [13]. The same compound yielded a half-life at 10 µM in data set [10] of over 2.42 h. In data set [12], the viability at 72 h, 20 µM amounted to 103%. For the same compound, at 10 µM the inhibition at LCK was 74%.

In data set [1], `Nc1ncnc2c1c(Oc1cc(C(F)(F)F)ccn1)nn2C1CC1` had a t1/2 of 4.2 h. Besides, at Cytochrome P450 1A2, the pEC50 is 6.34. Moreover, the Activity in the data set with CHO-K1 is over 1000 µM; in [7], “Non-Toxic”; in [11], “Non-Toxic”. Moreover, in data set [2], the inhibition at 1 µM is over 50%. The compound also returned a bioavailability in data set [3] of 83%. The same compound had a CLH in [4] of under 6.4 µL/min/1e6 cells. The compound further came in with a Cmax in [5] of 2067 ng/mL. In addition, in data set [6], the Papp was 33 ×10⁻⁶ cm/s. In addition, the pIC50 in data set [8] was 7.78 to 7.80; in [9], under 4.70; in [13], under 4.70. Besides, the half-life at 10 µM in [10] was over 2.42 h. Also, the viability at 72 h, 20 µM in data set [12] came out at 103%. Also, the inhibition at 10 µM at LCK came out at 55%.

The term pEC50 denotes the negative decadic logarithm of the EC50, by convention in mol/L. Read a low pEC50 as a large EC50. In general, inhibition refers to the change of the read-out against control, counted positive when it falls. A word on the bioavailability: it is dose-corrected exposure relative to a reference, in per cent. The Cmax is the highest concentration seen after dosing. Usually Papp stands for a coefficient for how fast a substance crosses the barrier. What is called pIC50 is the negative decadic logarithm of the IC50, by convention in mol/L. Low values mean a large IC50, high ones a small IC50. One may read the half-life as the time in which the quantity being followed falls by half. The low end stands for fast loss, the high end for slow loss.

Source of the values: ChEMBL document CHEMBL4602732, “Optimizing Pyrazolopyrimidine Inhibitors of Calcium Dependent Protein Kinase 1 for Treatment of Acute and Chronic Toxoplasmosis” (J Med Chem, 2020).
